Several values for one entry are separate records, joined by “and”; a condition that tells them apart may be missing. Equal entries are not always repeated. Records with an inconclusive call do not appear.
Test system: Nude mice, LX-1 lung xenograft intrarenal, tumor weight T/C
Experiment: NCI In Vivo Anticancer Drug Screen. Data for tumor model Human Lung LX-1 Xenograft (intrarenal inoculation) in NU/NU BALB/C (nude) mice
Conditions: endpoint: mean tumor weight change, higher = larger tumour
Method: The antitumor activity of compounds was measured in mice bearing transplantable tumors. Survival or tumor size were measured and the results are expressed as the measurement made in the treated group (T) divided by the measurement made in the vehicle treated control group (C). The tumor model used in this assay is Human Lung LX-1 Xenograft (intrarenal inoculation) in NU/NU BALB/C (nude) mice

[1] = dose: 100.0 mg/kg/injection, schedule: Q04DX003 (sc), vehicle: saline with Tween-80
[2] = dose: 200.0 mg/kg/injection, schedule: Q04DX003 (sc), vehicle: saline with Tween-80
[3] = dose: 150.0 mg/kg/injection, schedule: Q04DX003 (sc), vehicle: saline with Tween-80
[4] = dose: 300.0 mg/kg/injection, schedule: Q04DX003 (sc), vehicle: saline with Tween-80
[5] = dose: 150.0 mg/kg/injection, schedule: Q04DX003 (ip), vehicle: DMSO
[6] = dose: 25.0 mg/kg/injection, schedule: Q01DX010 (sc), vehicle: saline
[7] = dose: 50.0 mg/kg/injection, schedule: Q01DX010 (sc), vehicle: saline
[8] = dose: 300.0 mg/kg/injection, schedule: Q04DX003 (sc), vehicle: Klucel (hydroxypropylcellulose) (HPC)
[9] = dose: 600.0 mg/kg/injection, schedule: Q04DX003 (sc), vehicle: saline with Tween-80
[10] = dose: 50.0 mg/kg/injection, schedule: Q01DX010 (sc), vehicle: saline with Tween-80

With `CS(C)=O` the T/C (dose: 750.0 mg/kg/injection, schedule: Q01DX010 (sc), vehicle: saline) was 88 % of control and the T/C (dose: 6000.0 mg/kg/injection, schedule: Q01DX010 (sc), vehicle: saline) was 67 % of control.
For `C[Si](C)(C)O/C=C1\CCCCC1=O`, the T/C [1] was 95 % of control and the T/C [2] was 92 % of control.
`CCC1OC(OC)C=CC1=O` (stereo unspecified) was tested, and the T/C (dose: 37.5 mg/kg/injection, schedule: Q04DX003 (sc), vehicle: saline) was 90 % of control and the T/C (dose: 75.0 mg/kg/injection, schedule: Q04DX003 (sc), vehicle: saline) was 99 % of control.
With `BrCCC1(CCBr)CCCCC1` the T/C (dose: 300.0 mg/kg/injection, schedule: Q04DX003 (sc), vehicle: water) was 104 % of control, the T/C (dose: 600.0 mg/kg/injection, schedule: Q04DX003 (sc), vehicle: water) was 89 % of control and the T/C (dose: 1200.0 mg/kg/injection, schedule: Q04DX003 (sc), vehicle: water) was 85 % of control.
With `CCN(CC)Cc1cc2[nH]c3c4ccc(Cl)cc4ncc3c2cc1OC` the T/C (dose: 75.0 mg/kg/injection, schedule: Q04DX003 (sc), vehicle: saline with Tween-80) was 73 % of control, the T/C [3] was 71 % of control and the T/C [4] was 86 % of control.
With `CC(=O)NC(CCc1ccc(Cl)c(Cl)c1)c1cccc(O)c(=O)c1` (stereo unspecified) the T/C (dose: 50.0 mg/kg/injection, schedule: Q04DX003 (ip), vehicle: Klucel (hydroxypropylcellulose) (HPC)) was 52 % of control, the T/C (dose: 100.0 mg/kg/injection, schedule: Q04DX003 (ip), vehicle: Klucel (hydroxypropylcellulose) (HPC)) was 62 % of control and the T/C (dose: 200.0 mg/kg/injection, schedule: Q04DX003 (ip), vehicle: Klucel (hydroxypropylcellulose) (HPC)) was 57 % of control.
With `C1CC[N-]CC1.[Cl][Pt+2][Cl].[NH-]C1CC1` the T/C (dose: 25.0 mg/kg/injection, schedule: Q04DX003 (sc), vehicle: water) was 106 % of control, the T/C (dose: 50.0 mg/kg/injection, schedule: Q04DX003 (sc), vehicle: water) was 71 % of control and the T/C (dose: 100.0 mg/kg/injection, schedule: Q04DX003 (sc), vehicle: water) was 51 % of control.
In the case of `COc1ccc(N=N/N=c2\sc3cc(OC)ccc3n2C)cc1`, the T/C (dose: 30.0 mg/kg/injection, schedule: Q04DX003 (ip), vehicle: saline with Tween-80) is reported as 117 % of control, the T/C (dose: 60.0 mg/kg/injection, schedule: Q04DX003 (ip), vehicle: saline with Tween-80) is reported as 94 % of control and the T/C (dose: 75.0 mg/kg/injection, schedule: Q04DX003 (ip), vehicle: saline with Tween-80) is reported as 99 % of control. For the same molecule, the T/C (dose: 120.0 mg/kg/injection, schedule: Q04DX003 (ip), vehicle: saline with Tween-80) was 55 % of control, the T/C (dose: 150.0 mg/kg/injection, schedule: Q04DX003 (ip), vehicle: saline with Tween-80) was 80 % of control and the T/C (dose: 240.0 mg/kg/injection, schedule: Q04DX003 (ip), vehicle: saline with Tween-80) was 67 % of control. The T/C (dose: 300.0 mg/kg/injection, schedule: Q04DX003 (ip), vehicle: saline with Tween-80) was 50 % of control.
For `CCCCNc1ccc2nnc(C)n2n1`, the T/C [5] was 99 % of control.
In the case of `CN(C)N=Nc1ccc(C(N)=O)cc1`, the T/C (dose: 200.0 mg/kg/injection, schedule: Q04DX003 (ip), vehicle: saline with Tween-80) is reported as -20 % of control and -13 % of control.
`COc1ccc(C(=O)/C(Br)=C/C(=O)O)cc1` was tested, and the T/C [6] was 194 % of control and the T/C [7] was 158 % of control.
In the case of `Cn1cc(C2NC(=O)c3ccccc3N2)c2ccccc21` (stereo unspecified), the T/C [8] is reported as 83 % of control and 103 % of control, the T/C (dose: 900.0 mg/kg/injection, schedule: Q04DX003 (sc), vehicle: Klucel (hydroxypropylcellulose) (HPC)) is reported as 111 % of control and 92 % of control and the T/C (dose: 1200.0 mg/kg/injection, schedule: Q04DX003 (sc), vehicle: Klucel (hydroxypropylcellulose) (HPC)) is reported as 90 % of control and 103 % of control.
In the case of `Cc1ccc(S(=O)(=O)NC(=O)OC23COCN2COC3)cc1`, the T/C [2] is reported as 118 % of control, the T/C (dose: 400.0 mg/kg/injection, schedule: Q04DX003 (sc), vehicle: saline with Tween-80) is reported as 121 % of control and the T/C (dose: 800.0 mg/kg/injection, schedule: Q04DX003 (sc), vehicle: saline with Tween-80) is reported as 153 % of control. For the same molecule, the T/C (dose: 1600.0 mg/kg/injection, schedule: Q04DX003 (sc), vehicle: saline with Tween-80) was 112 % of control.
With `CCOC1=Cc2c(oc3c(C(C)(C)C)cc(OCC)cc23)OC(C(C)(C)C)=C1` the T/C [3] was 92 % of control, the T/C [4] was 101 % of control and the T/C [9] was 102 % of control.
For `NC(=O)CCC(N)C(=O)O` (stereo unspecified), the T/C (dose: 75.0 mg/kg/injection, schedule: Q04DX003 (ip), vehicle: suspension in saline) was 88 % of control, the T/C (dose: 150.0 mg/kg/injection, schedule: Q04DX003 (ip), vehicle: suspension in saline) was 77 % of control and the T/C (dose: 300.0 mg/kg/injection, schedule: Q04DX003 (ip), vehicle: suspension in saline) was 93 % of control. The T/C (dose: 600.0 mg/kg/injection, schedule: Q04DX003 (ip), vehicle: suspension in saline) was 100 % of control and the T/C (dose: 1200.0 mg/kg/injection, schedule: Q04DX003 (ip), vehicle: suspension in saline) was 87 % of control.
For `O=S(=O)(CCl)OCCCl`, the T/C (dose: 50.0 mg/kg/injection, schedule: Q04DX003 (sc), vehicle: saline with Tween-80) was 122 % of control and the T/C [1] was 101 % of control.
With `CC(=O)C(=O)O.CC(=O)C(=O)O.[NH-]C1CCCCC1[NH-].[Pt+2]` (stereo unspecified) the T/C (dose: 9.37 mg/kg/injection, schedule: Q04DX003 (sc), vehicle: other) was 67 % of control, the T/C (dose: 18.75 mg/kg/injection, schedule: Q04DX003 (sc), vehicle: other) was 76 % of control and the T/C (dose: 37.5 mg/kg/injection, schedule: Q04DX003 (sc), vehicle: other) was 80 % of control.
In the case of `[Cl][Hg][Cl]`, the T/C (dose: 2.5 mg/kg/injection, schedule: Q04DX003 (ip), vehicle: saline) is reported as 92 % of control, the T/C (dose: 5.0 mg/kg/injection, schedule: Q04DX003 (ip), vehicle: saline) is reported as 82 % of control and the T/C (dose: 10.0 mg/kg/injection, schedule: Q04DX003 (ip), vehicle: saline) is reported as 58 % of control.
For `CC1=C(/C=C/C(C)=C/C=C/C(C)=C/C(=O)O)C(C)(C)CCC1`, the T/C [10] was 75 % of control.
`CC1CCC(n2cnc3c(Cl)ncnc32)O1` (stereo unspecified) was tested, and the T/C [8] was 81 % of control.
`CNC(=O)ON(C(C)=O)C(=O)NC` was tested, and the T/C [6] was 49 % of control, the T/C [7] was 85 % of control and the T/C (dose: 100.0 mg/kg/injection, schedule: Q01DX010 (sc), vehicle: saline) was 41 % of control.
For `CN(N=O)C(N)=O`, the T/C (dose: 12.5 mg/kg/injection, schedule: Q01DX010 (sc), vehicle: saline with Tween-80) was -68 % of control, the T/C (dose: 25.0 mg/kg/injection, schedule: Q01DX010 (sc), vehicle: saline with Tween-80) was -54 % of control and the T/C [10] was -69 % of control.
`COc1cc(C(C)(C)C)cc(OC)c1C(O)(c1c(OC)cc(C(C)(C)C)cc1OC)c1c(OC)cc(C(C)(C)C)cc1OC` was tested, and the T/C [4] was 60 % of control, the T/C [9] was 54 % of control and the T/C (dose: 1200.0 mg/kg/injection, schedule: Q04DX003 (sc), vehicle: saline with Tween-80) was 54 % of control. The T/C (dose: 2400.0 mg/kg/injection, schedule: Q04DX003 (sc), vehicle: saline with Tween-80) was 73 % of control.
`NC(CCC(=O)NC(CS)C(=O)NCC(=O)O)C(=O)O` (stereo unspecified) was tested, and the T/C (dose: 300.0 mg/kg/injection, schedule: Q04DX003 (sc), vehicle: saline) was 97 % of control, the T/C (dose: 600.0 mg/kg/injection, schedule: Q04DX003 (sc), vehicle: saline) was 69 % of control and the T/C (dose: 1200.0 mg/kg/injection, schedule: Q04DX003 (sc), vehicle: saline) was 74 % of control. The T/C (dose: 2400.0 mg/kg/injection, schedule: Q04DX003 (sc), vehicle: saline) was 121 % of control.
For `COc1cccc2c1C(=O)c1c(O)c3c(c(O)c1C2=O)C[C@@](O)(C(=O)CO)C[C@@H]3OC1CC(OC(C)=O)C(OC(C)=O)C(C)O1` (stereo partly specified), the T/C (dose: 25.0 mg/kg/injection, schedule: Q01DX010 (sc), vehicle: distilled water + Tween-80) was 53 % of control.
`O=C(O)[C@H](Cc1ccccc1)N1C(=O)c2ccccc2C1=O` was tested, and the T/C [5] was 98 % of control, the T/C (dose: 300.0 mg/kg/injection, schedule: Q04DX003 (ip), vehicle: DMSO) was 58 % of control and the T/C (dose: 600.0 mg/kg/injection, schedule: Q04DX003 (ip), vehicle: DMSO) was 53 % of control.
`N=c1ccn2c(n1)OC1C(O)C(CO)OC12` (stereo unspecified) was tested, and the T/C (dose: 400.0 mg/kg/injection, schedule: Q04DX003 (sc), vehicle: saline) was 67 % of control, the T/C (dose: 800.0 mg/kg/injection, schedule: Q04DX003 (sc), vehicle: saline) was 48 % of control and the T/C (dose: 1600.0 mg/kg/injection, schedule: Q04DX003 (sc), vehicle: saline) was 16 % of control. The T/C (dose: 3200.0 mg/kg/injection, schedule: Q04DX003 (sc), vehicle: saline) was 8 % of control.

Source: PubChem BioAssay AID266 (DTP/NCI, 2004)
